Reference: US11472791B2 (Incyte Corporation, priority 2019, dated 2022)

Biological target: CDK2/Cyclin E1 (Homo sapiens (Human), UniProt P24941)
Assay: CDK2/Cyclin E1 HTRF enzyme activity assay
Type: biochemical
Details: 1 mM ATP
Procedure: Assays are conducted in white 384-well polystyrene plates in a final reaction volume of 8 μL. […] HTRF signals are read after 1 hour at room temperature on a PHERAstar FS plate reader (BMG Labtech). Data is analyzed with IDBS XLFit and GraphPad Prism 5.0 software using a three or four parameter dose response curve to determine IC50 for each compound.

Structure (SMILES) | IC50
CC(C)(O)Cn1cc(-c2nc(NC3CCN(S(=O)(=O)C4CCC(N5CCC5)CC4)CC3)ncc2C(F)(F)F)cn1 (single isomer, unassigned) [90 (peak 1), 1-(4-(2-((1-((4-(Azetidin-1-yl)cyclohexyl)sulfonyl)piperidin-4-yl)amino)-5-(trifluoromethyl)pyrimidin-4-yl)-1H-pyrazol-1-yl)-2-methylpropan-2-ol] | < 50 nM
CC(C)(O)Cn1cc(-c2nc(NC3CCN(S(=O)(=O)C4CCC(N5CCC5)CC4)CC3)ncc2C(F)(F)F)cn1 (single isomer, unassigned) [90 (peak 2), 1-(4-(2-((1-((4-(Azetidin-1-yl)cyclohexyl)sulfonyl)piperidin-4-yl)amino)-5-(trifluoromethyl)pyrimidin-4-yl)-1H-pyrazol-1-yl)-2-methylpropan-2-ol] | < 50 nM
CC(C)(O)Cn1cc(-c2nc(NC3CCN(S(=O)(=O)C4CCC(N5CCCC5)CC4)CC3)ncc2C(F)(F)F)cn1 (single isomer, unassigned) [91 (peak 1), 2-Methyl-1-(4-(2-((1-((4-(pyrrolidin-1-yl)cyclohexyl)sulfonyl)piperidin-4-yl)amino)-5-(trifluoromethyl)pyrimidin-4-yl)-1H-pyrazol-1-yl)propan-2-ol] | < 50 nM
CC(C)(O)Cn1cc(-c2nc(NC3CCN(S(=O)(=O)C4CCC(N5CCCC5)CC4)CC3)ncc2C(F)(F)F)cn1 (single isomer, unassigned) [91 (peak 2), 2-Methyl-1-(4-(2-((1-((4-(pyrrolidin-1-yl)cyclohexyl)sulfonyl)piperidin-4-yl)amino)-5-(trifluoromethyl)pyrimidin-4-yl)-1H-pyrazol-1-yl)propan-2-ol] | < 50 nM
O=S(=O)(c1cn[nH]c1)N1CCC(Nc2ncc(C(F)(F)F)c(-c3cnn(CC(F)(F)F)c3)n2)CC1 [Example 2, N-(1-((1H-Pyrazol-4-yl)sulfonyl)piperidin-4-yl)-4-(1-(2,2,2-trifluoroethyl)-1H-pyrazol-4-yl)-5-(trifluoromethyl)pyrimidin-2-amine] | < 50 nM
CS(=O)(=O)N1CCC(Nc2ncc(C(F)(F)F)c(-c3cnn(C4CCOCC4)c3)n2)CC1 [Example 3, N-(1-(Methylsulfonyl)piperidin-4-yl)-4-(1-(tetrahydro-2H-pyran-4-yl)-1H-pyrazol-4-yl)-5-(trifluoromethyl)pyrimidin-2-amine] | < 50 nM
N#CCS(=O)(=O)N1CCC(Nc2ncc(C(F)(F)F)c(-c3cnn(C4CCOCC4)c3)n2)CC1 [Example 4, 2-((4-((4-(1-(Tetrahydro-2H-pyran-4-yl)-1H-pyrazol-4-yl)-5-(trifluoromethyl)pyrimidin-2-yl)amino)piperidin-1-yl)sulfonyl)acetonitrile] | < 50 nM
O=S(=O)(Cc1ccccc1)N1CCC(Nc2ncc(C(F)(F)F)c(-c3cnn(C4CCOCC4)c3)n2)CC1 [Example 5, N-(1-(Benzylsulfonyl)piperidin-4-yl)-4-(1-(tetrahydro-2H-pyran-4-yl)-1H-pyrazol-4-yl)-5-(trifluoromethyl)pyrimidin-2-amine] | < 50 nM
O=S(=O)(C1CCOCC1)N1CCC(Nc2ncc(C(F)(F)F)c(-c3cnn(C4CCOCC4)c3)n2)CC1 [Example 6, 4-(1-(Tetrahydro-2H-pyran-4-yl)-1H-pyrazol-4-yl)-N-(1-((tetrahydro-2H-pyran-4-yl)sulfonyl)piperidin-4-yl)-5-(trifluoromethyl)pyrimidin-2-amine] | < 50 nM
N#Cc1cccc(S(=O)(=O)N2CCC(Nc3ncc(C(F)(F)F)c(-c4cnn(C5CCOCC5)c4)n3)CC2)c1 [Example 7, 3-((4-((4-(1-(Tetrahydro-2H-pyran-4-yl)-1H-pyrazol-4-yl)-5-(trifluoromethyl)pyrimidin-2-yl)amino)piperidin-1-yl)sulfonyl)benzo nitrile] | < 50 nM
O=C(Nc1ccc(S(=O)(=O)N2CCC(Nc3ncc(C(F)(F)F)c(-c4cnn(C5CCOCC5)c4)n3)CC2)cc1)N1CCOCC1 [Example 8, N-(4-((4-((4-(1-(Tetrahydro-2H-pyran-4-yl)-1H-pyrazol-4-yl)-5-(trifluoromethyl)pyrimidin-2-yl)amino)piperidin-1-yl)sulfonyl)phenyl)morpholine-4-carboxamide] | < 50 nM
Cn1cc(S(=O)(=O)N2CCC(Nc3ncc(C(F)(F)F)c(-c4cnn(C5CCOCC5)c4)n3)CC2)cn1 [Example 9, N-(1-((1-Methyl-1H-pyrazol-4-yl)sulfonyl)piperidin-4-yl)-4-(1-(tetrahydro-2H-pyran-4-yl)-1H-pyrazol-4-yl)-5-(trifluoromethyl)pyrimidin-2-amine] | < 50 nM
CS(=O)(=O)N1CCC(Nc2ncc(C(F)(F)F)c(-c3cnn(C4CCCCC4)c3)n2)CC1 [Example 12, 4-(1-Cyclohexyl-1H-pyrazol-4-yl)-N-(1-(methylsulfonyl)piperidin-4-yl)-5-(trifluoromethyl)pyrimidin-2-amine] | < 50 nM
CS(=O)(=O)N1CCC(Nc2ncc(C(F)(F)F)c(-c3cnn(-c4ccccc4F)c3)n2)CC1 [Example 13, 4-(1-(2-Fluorophenyl)-1H-pyrazol-4-yl)-N-(1-(methylsulfonyl)piperidin-4-yl)-5-(trifluoromethyl)pyrimidin-2-amine] | < 50 nM
CS(=O)(=O)N1CCC(Nc2ncc(C(F)(F)F)c(-c3cnn(-c4ccccc4Cl)c3)n2)CC1 [Example 14, 4-(1-(2-Chlorophenyl)-1H-pyrazol-4-yl)-N-(1-(methylsulfonyl)piperidin-4-yl)-5-(trifluoromethyl)pyrimidin-2-amine] | < 50 nM
Cc1nn(C2CCN(C)CC2)cc1-c1nc(NC2CCN(S(C)(=O)=O)CC2)ncc1F [Example 15, 5-Fluoro-4-(3-methyl-1-(1-methylpiperidin-4-yl)-1H-pyrazol-4-yl)-N-(1-(methylsulfonyl)piperidin-4-yl)pyrimidin-2-amine] | 50 to 200 nM
Cc1nn(C2CCN(C)CC2)cc1-c1ccnc(NC2CCN(S(C)(=O)=O)CC2)n1 [Example 16, 4-(3-Methyl-1-(1-methylpiperidin-4-yl)-1H-pyrazol-4-yl)-N-(1-(methylsulfonyl)piperidin-4-yl)pyrimidin-2-amine] | 50 to 200 nM
CN1CCC(n2cc(-c3nc(NC4CCN(S(C)(=O)=O)CC4)ncc3F)c(C(F)(F)F)n2)CC1 [Example 17, 5-Fluoro-4-(1-(1-methylpiperidin-4-yl)-3-(trifluoromethyl)-1H-pyrazol-4-yl)-N-(1-(methylsulfonyl)piperidin-4-yl)pyrimidin-2-amine] | < 50 nM
CN1CCC(n2ncc(-c3nc(NC4CCN(S(C)(=O)=O)CC4)ncc3C(F)(F)F)c2C(F)(F)F)CC1 [Example 18, 4-(1-(1-Methylpiperidin-4-yl)-5-(trifluoromethyl)-1H-pyrazol-4-yl)-N-(1-(methylsulfonyl)piperidin-4-yl)-5-(trifluoromethyl)pyrimidin-2-amine] | 50 to 200 nM
CS(=O)(=O)N1CC(Nc2ncc(C(F)(F)F)c(-c3cnn(C4CCOCC4)c3)n2)C1 [Example 20, N-(1-(Methylsulfonyl)azetidin-3-yl)-4-(1-(tetrahydro-2H-pyran-4-yl)-1H-pyrazol-4-yl)-5-(trifluoromethyl)pyrimidin-2-amine] | 500 to 1000 nM
CS(=O)(=O)N1CCC(Nc2ncc(Cl)c(-c3cnn(C4CCOCC4)c3)n2)CC1 [Example 22, 5-Chloro-N-(1-(methylsulfonyl)piperidin-4-yl)-4-(1-(tetrahydro-2H-pyran-4-yl)-1H-pyrazol-4-yl)pyrimidin-2-amine] | < 50 nM
Cn1cnc(S(=O)(=O)N2CCC(Nc3ncc(C(F)(F)F)c(-c4cnn(C5CCOCC5)c4)n3)CC2)c1 [Example 23, N-(1-((1-Methyl-1H-imidazol-4-yl)sulfonyl)piperidin-4-yl)-4-(1-(tetrahydro-2H-pyran-4-yl)-1H-pyrazol-4-yl)-5-(trifluoromethyl)pyrimidin-2-amine] | < 50 nM
CCn1cnc(S(=O)(=O)N2CCC(Nc3ncc(C(F)(F)F)c(-c4cnn(C5CCOCC5)c4)n3)CC2)c1 [Example 24, N-(1-((1-Ethyl-1H-imidazol-4-yl)sulfonyl)piperidin-4-yl)-4-(1-(tetrahydro-2H-pyran-4-yl)-1H-pyrazol-4-yl)-5-(trifluoromethyl)pyrimidin-2-amine] | < 50 nM
Cn1cnc(S(=O)(=O)N2CCC(Nc3ncc(C(F)(F)F)c(-c4cnn(CC(F)(F)F)c4)n3)CC2)c1 [Example 25, N-(1-((1-Methyl-1H-imidazol-4-yl)sulfonyl)piperidin-4-yl)-4-(1-(2,2,2-trifluoroethyl)-1H-pyrazol-4-yl)-5-(trifluoromethyl)pyrimidin-2-amine] | < 50 nM
Cn1cnc(S(=O)(=O)N2CCC(Nc3ncc(C(F)(F)F)c(-c4cnn([C@H]5CC[C@H](O)CC5)c4)n3)CC2)c1 [Example 26, trans-4-(4-(2-((1-((1-Methyl-1H-imidazol-4-yl)sulfonyl)piperidin-4-yl)amino)-5-(trifluoromethyl)pyrimidin-4-yl)-1H-pyrazol-1-yl)cyclohexan-1-ol] | < 50 nM
Cc1nc(C(=O)N[C@]2(C)C[C@H](O)C2)ccc1-n1cc(-c2nc(NC3CCN(S(C)(=O)=O)CC3)ncc2C(F)(F)F)cn1 [Example 28, N-(cis-3-Hydroxy-1-methylcyclobutyl)-6-methyl-5-(4-(2-(1-(methylsulfonyl)piperidin-4-ylamino)-5-(trifluoromethyl)pyrimidin-4-yl)-1H-pyrazol-1-yl)picolinamide] | < 50 nM
CNCc1ccc(-n2cc(-c3nc(NC4CCN(S(C)(=O)=O)CC4)ncc3C(F)(F)F)cn2)c(Cl)c1 [Example 29, 4-(1-(2-Chloro-4-((methylamino)methyl)phenyl)-1H-pyrazol-4-yl)-V-(1-(methylsulfonyl)piperidin-4-yl)-5-(trifluoromethyl)pyrimidin-2-amine] | < 50 nM
CC(C)(C(N)=O)n1cc(-c2nc(NC3CCN(S(C)(=O)=O)CC3)ncc2C(F)(F)F)cn1 [Example 30, 2-Methyl-2-(4-(2-((1-(methylsulfonyl)piperidin-4-yl)amino)-5-(trifluoromethyl)pyrimidin-4-yl)-1H-pyrazol-1-yl)propanamide] | < 50 nM
